Assay [1] concerns the target VR1 nociceptor (Rattus norvegicus, UniProt O35433). As to the kind of experiment: Blocking of capsaicin-activated ionic current in X. laevis ovocites expressing the VR1 nociceptor (two-microelectrode voltage clamp). Type of assay: cell-based. The conditions noted are these: activated by capsaicin 20 μM, -80 mV, read-out: concentration that inhibited half the VR1 nociceptor response (IC50).
From the text: This test comprises the contacting of X. laevis ovocites that express the VR1 nociceptor or glutamatergic receptors with an agonist (ligand) for said VR1 nociceptor, for example, capsaicin or L-glutamate, in the presence or absence of the compound to be tested, maintaining the transmembrane voltage constant at −80 mV, and to detect the inhibiting activity of said compound to be tested by measuring the ionic current activated by the agonist in the presence and absence of the compound to be tested. The power and efficiency of the inhibiting activity of the compound to be tested can be determined by obtaining the dose-response curves. For this, the magnitude of the ionic current blockage activated by the X. laevis ovocite agonist that express the receptors in the presence of growing concentrations of the compound to be tested, is examined. The ionic current intensities ratio, in the presence and absence of the compound to be tested, allows to obtain the dose-response curves (19, 20). These graphs meet logarithmic functions to determine the maximum blockage (power) and the antagonist concentration that is produced by half the maximum blockage (IC50 efficiency).
Briefly, the X. laevis ovocites of adult frogs are gathered, manipulated, and injected with cDNA that codes the VR1 nociceptor (5, 19). The ionic currents activated by the capsaicin agonist are recorded with the maintenance of the constant voltage technique with two microelectrodes (two-microelectrode voltage clamp) (19, 20). The ovocites that express the VR1 nociceptor are transferred to the recording chamber and perfunded using an 8-output perfusion system. […] The inhibiting activity is detected by measuring the ionic current activated by the agonist in the presence and absence of the N-alkylglycine trimeres.
The power and efficiency of the inhibitory activity of N-alkylglycine trimeres is determined by obtaining the dose-response curves. […]

Assay [2] has as its system irritation produced by topical capsaicin in the eye. Put plainly: Ocular pain model: scratches after topical capsaicin in the eye of a mouse. Type of assay: in vivo. The note with it: scratches during 1 minute, second capsaicin application with compound vs first without. The method, then: An investigation was performed on the attenuation of the N-alkylglycine trimeres indicated in Table 1, on the irritation produced by the topical application of capsaicin in the eyes of animals, an ocular pain model (22). The experimental paradigm compares the number of scratches after the topical administration of capsaicin at 0,01% in the eye of a mouse, in the absence and presence of the N-alkylglycine trimeres. After the administration of capsaicin, the number of times the mouse scratches its treated eye during 1 minute is counted. Subsequently, the affected eye is extensively rinsed with saline solution and 15 minutes after application, the compound to be tested is administered. After 5 minutes incubation, a 0,1% capsaicin solution containing the compound to be tested is administered. The number of times the animal scratches its eye during 1 minute is immediately counted. The analgesic capacity is obtained by comparing the number of scratches in the first application of capsaicin (without the compound to be tested) and the second application of the irritant (in the presence of the compound to be tested). A decrease of scratches in the second application of capsaicin is indicative of an analgesic activity of the N-alkylglycine trimere tested.

In assay [3] the target is NMDA receptor (NR1 and NR2A subunities) (Homo sapiens, UniProt Q05586+Q12879). As to the kind of experiment: Blocking of L-glutamate/glycine-activated ionic current in X. laevis ovocites expressing the NMDA receptor (two-microelectrode voltage clamp). The note with it: activated by L-glutamate/glycine 100 μM/20 μM, -80 mV, read-out: concentration that inhibited half the NMDA receptor response (IC50). Type of assay: cell-based. From the text:
In order to evaluate the biological activity of the N-alkylglycine trimeres obtained in Example 1.1 on type NMDA glutamatergic receptors, a test was developed that evaluated the efficiency and power of said compounds blocking the ionic current activated by X. laevis ovocite agonist that express the type NMDA receptor, the […].
The heterologeous expression of receptors in X. laevis ovocites may be carried out according to the procedure described by Ferrer-Montiel and Montal (19). Briefly, the X. laevis ovocites of adult frogs are gathered, manipulated and injected with cRNA that codes the NR1 and NR2A subunities of the NMDA receptor (5, 20). The ionic currents activated by L-glutamate agonist in the presence of the glycine coagonist are recorded with the constant voltage maintenance technique with two microelectrodes (two-microelectrode voltage clamp) (19, 20). The ovocites that express the receptor are transferred to the recording chamber and perfunded using an 8-output perfusion system. The agonist and the coagonist, both in the absence and in the presence of the N-alkylglcycine trimeres to be tested, are dissolved in a Ringer buffer (Hepes 10 mM pH 7,4 NaCl 100 mM, Ba Cl2, 2,0 mM, KCl 3,0 mM) supplemented with 100 μM fluphenamic acid (20). This buffered solution is used to minimize the contribution of the chloride endogenous ionic channel activated by calcium to the glutamatergic receptor ionic current (19, 20). The transmembrane voltage is kept constant at −80 mV and the ionic currents are activated by applying pulses of the L-glutamate/glycine solution (100 μM /20 μM) in the presence or absence of growing concentrations of the N-alkylglycine trimeres to be tested. The inhibiting activity is detected by measuring the ionic current activated by the agonist in the presence and absence of the N-alkylglycine trimeres.
The power and efficiency of the N-alkylglycine trimeres inhibiting activity is determined by obtaining the dose-response curves. […]

Chain of VR1 nociceptor (O35433 whole entry): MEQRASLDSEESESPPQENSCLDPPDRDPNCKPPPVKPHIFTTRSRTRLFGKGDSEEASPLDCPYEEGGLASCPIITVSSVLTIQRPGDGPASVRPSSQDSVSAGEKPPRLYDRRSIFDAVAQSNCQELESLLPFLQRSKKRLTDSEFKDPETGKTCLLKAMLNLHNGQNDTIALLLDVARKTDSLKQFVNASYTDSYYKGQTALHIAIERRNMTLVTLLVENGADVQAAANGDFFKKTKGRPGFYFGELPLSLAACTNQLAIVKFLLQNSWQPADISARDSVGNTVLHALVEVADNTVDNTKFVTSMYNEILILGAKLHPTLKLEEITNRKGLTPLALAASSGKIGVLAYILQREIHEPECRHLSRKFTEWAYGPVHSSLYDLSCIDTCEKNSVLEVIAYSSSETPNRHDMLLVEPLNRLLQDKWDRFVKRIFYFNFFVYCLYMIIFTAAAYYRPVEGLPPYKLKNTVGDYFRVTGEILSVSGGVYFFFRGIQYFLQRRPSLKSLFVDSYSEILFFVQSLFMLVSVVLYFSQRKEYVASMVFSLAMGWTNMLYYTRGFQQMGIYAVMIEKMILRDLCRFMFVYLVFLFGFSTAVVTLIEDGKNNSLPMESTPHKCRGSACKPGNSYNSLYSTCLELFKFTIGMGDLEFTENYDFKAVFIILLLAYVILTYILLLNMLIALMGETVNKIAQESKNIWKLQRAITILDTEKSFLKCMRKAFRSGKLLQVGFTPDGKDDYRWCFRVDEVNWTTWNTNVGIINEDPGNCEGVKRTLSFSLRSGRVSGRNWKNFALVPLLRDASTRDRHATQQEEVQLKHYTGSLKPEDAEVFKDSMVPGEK
Chain of NMDA receptor (NR1 and NR2A subunities) (Q12879 23-1464, other chains not shown): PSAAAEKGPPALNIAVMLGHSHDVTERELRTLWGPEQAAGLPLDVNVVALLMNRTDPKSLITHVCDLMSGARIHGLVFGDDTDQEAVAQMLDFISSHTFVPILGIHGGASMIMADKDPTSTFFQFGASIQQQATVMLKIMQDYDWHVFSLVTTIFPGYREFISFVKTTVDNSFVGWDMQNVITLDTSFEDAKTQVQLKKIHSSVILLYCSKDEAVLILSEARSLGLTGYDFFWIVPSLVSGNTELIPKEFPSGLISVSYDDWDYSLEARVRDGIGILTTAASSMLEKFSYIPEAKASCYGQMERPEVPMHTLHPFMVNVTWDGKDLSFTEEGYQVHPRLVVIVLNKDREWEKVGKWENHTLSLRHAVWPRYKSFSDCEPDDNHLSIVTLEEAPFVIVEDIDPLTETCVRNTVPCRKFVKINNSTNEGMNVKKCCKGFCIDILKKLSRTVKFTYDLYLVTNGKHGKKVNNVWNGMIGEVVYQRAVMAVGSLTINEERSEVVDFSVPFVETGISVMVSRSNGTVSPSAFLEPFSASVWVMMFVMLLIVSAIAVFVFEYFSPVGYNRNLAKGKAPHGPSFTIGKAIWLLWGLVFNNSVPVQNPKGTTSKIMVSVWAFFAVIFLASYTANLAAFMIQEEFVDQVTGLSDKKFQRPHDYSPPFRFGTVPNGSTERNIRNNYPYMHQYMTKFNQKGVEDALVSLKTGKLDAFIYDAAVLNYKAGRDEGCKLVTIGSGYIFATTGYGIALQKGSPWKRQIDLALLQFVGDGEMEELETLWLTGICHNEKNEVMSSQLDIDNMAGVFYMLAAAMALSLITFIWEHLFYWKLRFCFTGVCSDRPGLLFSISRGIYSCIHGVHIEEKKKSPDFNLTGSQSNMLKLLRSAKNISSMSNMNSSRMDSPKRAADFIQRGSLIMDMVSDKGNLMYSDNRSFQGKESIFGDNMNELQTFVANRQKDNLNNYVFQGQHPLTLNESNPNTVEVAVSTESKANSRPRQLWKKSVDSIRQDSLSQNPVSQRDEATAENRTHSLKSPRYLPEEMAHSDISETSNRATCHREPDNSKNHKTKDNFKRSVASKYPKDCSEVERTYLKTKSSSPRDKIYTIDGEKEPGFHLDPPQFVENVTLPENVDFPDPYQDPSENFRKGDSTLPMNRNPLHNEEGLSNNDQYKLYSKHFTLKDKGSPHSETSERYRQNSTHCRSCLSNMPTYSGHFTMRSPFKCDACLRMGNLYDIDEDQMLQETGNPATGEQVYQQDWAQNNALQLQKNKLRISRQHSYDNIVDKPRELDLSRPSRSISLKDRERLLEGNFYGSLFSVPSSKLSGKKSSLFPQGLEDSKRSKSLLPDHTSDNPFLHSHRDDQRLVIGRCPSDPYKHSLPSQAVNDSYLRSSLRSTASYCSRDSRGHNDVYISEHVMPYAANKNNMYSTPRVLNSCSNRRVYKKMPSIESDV

`CN1CCCC1CCNCC(=O)N(CCc1ccc(Cl)cc1Cl)CC(=O)N(CCc1ccc(Cl)cc1Cl)CC(N)=O` (racemic) [compound [4], [N-[(R,S)-2-[2-(N-methyl)pyrrolidinyl]ethyl]glycyl]-[N-(2,4-dichlorophenethyl)glycyl]-N-(2,4-dichlorophenethyl)glycinamide]: in assay [1], the IC50 is about 1 µM. Also, the “attenuation of the ocular irritation produced by capsaicin” value in assay [2] is “approximately 40%”.
Turning to `CCN(CC)CCCNCC(=O)N(CCc1ccc(Cl)cc1Cl)CC(=O)N(CCC(C)C)CC(N)=O` [compound [7], [N-[3-(N,N-diethylamine)propyl]glycyl]-[N-(2,4-dichlorophenethyl)glycyl]-N-(3-methylbutyl)glycinamide], the IC50 in assay [1] is about 30 µM.
As for `CCN(CC)CCCNCC(=O)N(CCc1ccc(Cl)cc1Cl)CC(=O)N(CCc1ccc(Cl)cc1Cl)CC(N)=O` [compound [8], [N-[3-(N,N-diethylamine)propyl]glycyl]-[N-(2,4-dichlorophenethyl)glycyl]-N-(2,4-dichlorophenethyl)glycinamide], the IC50 in assay [1] is about 2 µM. Further, the “attenuation of the ocular irritation produced by capsaicin” value in assay [2] is listed as “approximately 20%”.
For the molecule `CCN(CC)CCCN(CC(=O)N(CCc1ccc(Cl)cc1Cl)CC(N)=O)C(=O)CNCCC(c1ccccc1)c1ccccc1` [compound [9]], the IC50 in assay [3] turned out to be 1 µM.
On the same count and under the same terms, the result for `CCN(CC)CCCN(CC(=O)N(CCc1ccccn1)CC(N)=O)C(=O)CNCCC(c1ccccc1)c1ccccc1` [compound [10]] reads about 2 µM.
Still for that read-out and setting: the result for `CCN(CC)CCCN(CC(=O)N(CCn1ccnc1)CC(N)=O)C(=O)CNCCC(c1ccccc1)c1ccccc1` [compound [11]] reads about 10 µM.
